In ChEMBL document CHEMBL1201862, “PubChem BioAssay data set” (2004):
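Values below derive from 48-hour exposures of cells grown in 96-well plates, with endpoints linearly interpolated between the two concentrations bracketing the appropriate inhibition level. At the GI50, growth is halved.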 Activity calls are given as the source filed them. Rule as the data show it: active = GI50 up to about 1.1 µM and inactive = higher.

Tests used:
Test in all cases: NCI anticancer screen, dose series, 48 h
[1] = tested on: HOP-92
[2] = tested on: SN12C
[3] = tested on: U-251
[4] = tested on: TK-10
[5] = tested on: K562
[6] = tested on: HL-60
[7] = tested on: OVCAR-5
[8] = tested on: SF-295
[9] = tested on: SK-MEL-28
[10] = tested on: MDA-MB-231
[11] = tested on: UO-31
[12] = tested on: NCI-H522
[13] = tested on: EKVX
[14] = tested on: SK-MEL-2
[15] = tested on: CCRF-CEM
[16] = tested on: NCI-H226
[17] = tested on: CAKI-1
[18] = tested on: IGROV-1
[19] = tested on: HOP-62
[20] = tested on: SNB-78

Row | Compound | GI50 [1] | GI50 [2] | GI50 [3] | GI50 [4] | GI50 [5] | GI50 [6] | GI50 [7] | GI50 [8] | GI50 [9] | GI50 [10] | GI50 [11] | GI50 [12] | GI50 [13] | GI50 [14] | GI50 [15] | GI50 [16] | GI50 [17] | GI50 [18] | GI50 [19] | GI50 [20]
1 | N=C1C=CC(=C(c2ccc(N)cc2)c2ccc(N)cc2)C=C1 | 3.22 µM (inactive) | 0.444 µM (active) | 0.406 µM (active) | 10.2 µM (inactive) | 2.39 µM (inactive) | 3.85 µM (inactive) | 9.27 µM (inactive) | 3.99 µM (inactive) | 8.13 µM (inactive) | 4.66 µM (inactive) | 12.5 µM (inactive) | 2.64 µM (inactive) | 5.58 µM (inactive) | 2.9 µM (inactive) | 3.15 µM (inactive) | 3.68 µM (inactive) | 19.1 µM (inactive) | 9.86 µM (inactive) | 3.3 µM (inactive) | 4.14 µM (inactive)
2 | N#Cc1ccccc1NC(=O)C(=O)C(C(=O)c1ccccc1F)C1OC(=O)c2ccccc21 (configuration not stated) | > 100 µM (inactive) | 28.2 µM (inactive) | 15 µM (inactive) | > 100 µM (inactive) | 36.7 µM (inactive) | 20.9 µM (inactive) | 65.6 µM (inactive) | 55.1 µM (inactive) | 39.4 µM (inactive) |  | 43.8 µM (inactive) | 21 µM (inactive) | 45.5 µM (inactive) | 24.1 µM (inactive) | 15.1 µM (inactive) | 18.4 µM (inactive) | 64.4 µM (inactive) | 86.1 µM (inactive) | 66.8 µM (inactive) | 25.8 µM (inactive)
3 | CC(C)CC(N)C(=O)OCN1C(=O)C2C3C=CC(C2C1=O)C1C2C(=O)N(COC(=O)C(N)CC(C)C)C(=O)C2C31 (configuration not stated) | > 100 µM (inactive) | > 100 µM (inactive) | > 100 µM (inactive) | > 100 µM (inactive) | > 100 µM (inactive) | 30.4 µM (inactive) | > 100 µM (inactive) | > 100 µM (inactive) | > 100 µM (inactive) |  | > 100 µM (inactive) | > 100 µM (inactive) | > 100 µM (inactive) | > 100 µM (inactive) | 75.3 µM (inactive) | > 100 µM (inactive) | > 100 µM (inactive) | > 100 µM (inactive) | > 100 µM (inactive) | > 100 µM (inactive)
4 | COc1cc2c(c(OC)c1OC)-c1cccc(=O)cc1C(NC(C)=O)CC2 (configuration not stated) | 0.0863 µM (active) | 0.339 µM (active) | 0.0771 µM (active) | > 28.2 µM (inactive) | 0.0335 µM (active) | 0.0208 µM (active) | 7.5 µM (inactive) | 0.0792 µM (active) | 2.15 µM (inactive) | 0.139 µM (active) | 4.93 µM (inactive) | 0.0382 µM (active) | > 100 µM (inactive) | 0.0698 µM (active) | 0.0414 µM (active) | 0.845 µM (active) | 0.211 µM (active) | 0.166 µM (active) | 0.172 µM (active) | 0.0859 µM (active)
5 | COc1ccc(COCC(Cn2ccnc2)OCc2ccc(C(=O)O)cc2)cc1 (configuration not stated) | > 100 µM (inactive) | > 100 µM (inactive) | > 100 µM (inactive) | > 100 µM (inactive) | > 100 µM (inactive) | > 100 µM (inactive) | > 100 µM (inactive) | > 100 µM (inactive) | > 100 µM (inactive) |  | > 100 µM (inactive) | > 100 µM (inactive) | > 100 µM (inactive) | > 100 µM (inactive) | > 100 µM (inactive) | > 100 µM (inactive) | > 100 µM (inactive) | > 100 µM (inactive) | > 100 µM (inactive) | > 100 µM (inactive)
6 | Cc1cc(O)c2c(c1)C[C@@H](O)C1=C2C(=O)c2c(O)ccc(OC3CC(O)C(OC4CC(OC5CCC(OC6CC(O)C(OC7CC(OC8CCC(O)C(C)O8)C(O)C(C)O7)C(C)O6)C(C)O5)C(O)C(C)O4)C(C)O3)c2C1=O (some centres not stated) | 0.178 µM (active) | 0.0581 µM (active) | 0.0387 µM (active) | 0.184 µM (active) | 0.0653 µM (active) | 0.0364 µM (active) | 0.128 µM (active) | 0.0441 µM (active) | 0.07 µM (active) | 0.171 µM (active) | 0.156 µM (active) | 0.0188 µM (active) | 0.112 µM (active) | 0.0577 µM (active) | 0.0531 µM (active) | 0.268 µM (active) | 0.138 µM (active) | 0.176 µM (active) | 0.232 µM (active) | 0.0245 µM (active)
